Measurements: patent publication US5985871A, “Benzoxazine compounds for enhancing synaptic response” (Cortex Pharmaceuticals, Inc., priority 1997, dated 1999)

How the values were obtained:
rats = assay: 8-arm radial maze memory test; type: in vivo, rat; settings: for Maze MED (Minimum Effective Dose) / minimal effective dose: threshold dose for enhancing memory in rats, 8-arm radial maze; for minimal effective dose: Rattus norvegicus, read-out: Maze MED (Minimum Effective Dose)
Experimental: The right bar of each pair represents the results for the same animals administered vehicle alone on alternate days of testing.
All of the data in FIG. 1 were obtained using the same group of ten rats. […] In other words, vehicle alone was administered to the group on days 1, 3 and 5, and compound at a selected dosage was administered on days 2 and 4. […] Error bars indicate the standard error of the mean (SEM). The asterisks (*) in the figure indicate data wherein p<0.05 by the paired t test.

AMPA receptors = assay: field EPSP response in rat hippocampal slices; type: cell-based; settings: for EPSP response, in words: comment on Table 1
Experimental: Hippocampal tissue slices were perfused with artificial cerebrospinal fluid containing increasing concentrations of test compound at 15-30 minute intervals separated by perfusion with ACSF without the test compound, and the percent increases in EPSP amplitude and half-width before and after compound perfusion were determined.
The physiological effects of compounds in accordance with the invention can be tested in vitro with slices of rat hippocampus according to the following procedure. Excitatory responses (field EPSPs) are measured in hippocampal slices, which are maintained in a recording chamber continuously perfused with artificial cerebrospinal fluid (ACSF). During a 15-30 minute interval, the perfusion medium is switched to one containing various concentrations of the test compounds. Responses collected immediately before and at the end of drug perfusion were superimposed in order to calculate both the percent increase in EPSP amplitude and percent increase in the width of the response at one-half the peak height (half-width). An increase in either measure, that is, of the amplitude or half-width, can be used as an indicator of beneficial therapeutic activity.
To conduct these tests, the hippocampus was removed from anesthetized, 2 month old Sprague-Dawley rats and tissue slices (400 micrometers thick) were prepared and maintained in an interface chamber at 35° C. using conventional techniques [see, for example, Dunwiddie and Lynch, J. Physiol. […] A bipolar nichrome stimulating electrode was positioned in the dendritic layer (stratum radiatum) of the hippocampal subfield CA1 close to the border of subfield CA3.
Current pulses (0.1 msec) through the stimulating electrode activate a population of the Schaffer-commissural (SC) fibers, which arise from neurons in the subdivision CA3 and terminate in synapses on the dendrites of CA1 neurons. Activation of these synapses causes them to release the transmitter glutamate. Glutamate binds to the post-synaptic AMPA receptors which then transiently open an associated ion channel and permit a sodium current to enter the postsynaptic cell. This current results in a voltage in the extracellular space (the field excitatory post-synaptic potential or field "EPSP") which is recorded by a high impedance recording electrode positioned in the middle of the stratum radiatum of CA1.
For the experiments summarized in Table 1, the intensity of the stimulation current was adjusted to produce half-maximal EPSPs (typically about 1.5-2.0 mV). Paired stimulation pulses were given every 40 sec with an interpulse interval of 200 msec (see below). The field EPSPs of the second response were digitized and analyzed to determine amplitude, half-width, and response area. If the responses were stable for 15-30 minutes (baseline), test compounds were added to the perfusion lines for a period of about 20 minutes. The perfusion was then changed back to regular ACSF.
Paired-pulse stimulation was used because stimulation of the SC fibers, in part, activates interneurons that generate an inhibitory postsynaptic potential (IPSP) in the pyramidal cells of CA1. This feed forward IPSP typically sets in after the EPSP reaches its peak. It accelerates the repolarization and shortens the decay phase of the EPSP, and thus could partially mask the effects of the test compounds. One of the relevant features of the feed-forward IPSP is that it can not be reactivated for several hundred milliseconds following a stimulation pulse. This phenomenon can be employed to advantage to eliminate IPSP by delivering paired pulses separated by 200 milliseconds and using the second ("primed") response for data analysis.

brain AMPA receptors = settings: metabolite of aniracetam; cited from earlier work
[1] = peripheral administration in humans; Guenzi and Zanetti 1990; cited from earlier work
[2] = compound concentration 30 μM, rat hippocampal slice, field CA1
[3] = compound concentration 100 μM, rat hippocampal slice, field CA1

O=C1c2cc3c(cc2OC2OCCN12)OCO3 (racemic) [Compound 1, 7,8-Dihydro-5aH, 10H-1,3-dioxolo[4,5-g]oxazolo[2,3-b][1,3]benzoxazin-10-one]
average total number of errors (rats; FIG. 1, 0.03, 0.1 and 0.5 mg/kg versus vehicle, ten rats): significant, dose-dependent reduction | average number of correct choices before the first error (rats; FIG. 1, 0.03, 0.1 and 0.5 mg/kg versus vehicle, ten rats, retention phase): significant, dose-dependent increase | Maze MED (Minimum Effective Dose) (rats): 0.05 mg/kg | EPSP Response (percent increase in amplitude of the EPSP response) (AMPA receptors; [2]): 34% | EPSP Response (percent increase in amplitude of the EPSP response) (AMPA receptors; compound concentration 50 μM, resolved enantiomers of compound 1): 80%

COc1ccc(C(=O)NCCCC(=O)O)cc1 [anisoyl-GABA]
aniracetam-like effects (brain AMPA receptors): only weak aniracetam-like effects

CC1CN2C(=O)c3cc4c(cc3OC2O1)OCO4 (single isomer, unassigned) [Compound 5.2, 7,8-Dihydro-7-methyl-5aH, 10H-1,3-dioxolo[4,5-g]oxazolo[2,3-b][1,3]benzoxazin-10-one]
EPSP Response (percent increase in amplitude of the EPSP response) (AMPA receptors; [2]): 10%

O=C1c2cc3c(cc2OC2SCCN12)OCO3 (centres unmarked) [Compound 4, 7,8-Dihydro-5aH, 10H-1,3-dioxolo[4,5-g]thiazolo[2,3-b][1,3]benzoxazin-10-one]
EPSP response, in words (AMPA receptors): About the same activity | EPSP Response (percent increase in amplitude of the EPSP response) (AMPA receptors; [2]): 20%

O=C1c2cc3c(cc2OC2OCCCN12)OCO3 (centres unmarked) [Compound 7, 8,9-Dihydro-5aH, 7H, 10H-1,3-dioxolo[4,5-g][1,3]oxazino[2,3-b][1,3]benzoxazin-11-one]
EPSP Response (percent increase in amplitude of the EPSP response) (AMPA receptors; [2]): 15%

O=C1c2cc3c(cc2OC2CCCCN12)OCO3 (centres unmarked) [Compound 7c, reference compound]
EPSP Response (percent increase in amplitude of the EPSP response) (AMPA receptors; compound concentration 300 μM, rat hippocampal slice, field CA1): 25%

CC1(C)Oc2cc3c(cc2O1)C(=O)N1CCOC1O3 (centres unmarked) [Compound 3, 7,8-Dihydro-2,2-dimethyl-5aH, 10H-1,3-dioxolo[4,5-g]oxazolo[2,3-b][1,3]benzoxazin-10-one]
EPSP Response (percent increase in amplitude of the EPSP response) (AMPA receptors; [2]): 33%

O=C(NCCO)c1cc2c(cc1O)OCO2 [Compound 1i, 2-(2-Hydroxy-4,5-methylenedioxybenzamido)ethanol]
EPSP response, in words (AMPA receptors): increased EPSP response | EPSP Response (percent increase in amplitude of the EPSP response) (AMPA receptors; [3]): 8%

CC12OCCN1C(=O)c1cc3c(cc1O2)OCO3 (centres unmarked) [Compound 8, 7,8-Dihydro-5a-methyl-10H-1,3-dioxolo[4,5-g]oxazolo[2,3-b][1,3]benzoxazin-10-one]
EPSP Response (percent increase in amplitude of the EPSP response) (AMPA receptors; [3]): 8%

O=C1c2cc3c(cc2OC2OCCN12)OCO3 (single isomer, unassigned) [Column Fraction 2]
MED of less active enantiomer relative to active enantiomer (rats; enantiomers of compound 1, maze test): 50 fold | Maze MED (Minimum Effective Dose) (rats; listed as less active enantiomer): 0.5 mg/kg | EPSP Response (percent increase in amplitude of the EPSP response) (AMPA receptors; compound concentration 50 μM, resolved enantiomers of compound 1, listed as second-eluting enantiomer): does not detectably change

O=C1c2cc3c(cc2OC2CCCN12)OCO3 (centres unmarked) [Compound 1c, reference compound]
minimal effective dose (rats): 1 mg/kg | EPSP Response (percent increase in amplitude of the EPSP response) (AMPA receptors; [3]): 25%

O=C1c2cc3c(cc2OC2CCCN12)OCCO3 (centres unmarked) [Compound 2c, reference compound]
minimal effective dose (rats): 0.1 mg/kg | EPSP Response (percent increase in amplitude of the EPSP response) (AMPA receptors; compound concentration >30 μM, rat hippocampal slice, field CA1): 25%

COc1ccc(C(=O)N2CCCC2=O)cc1 [aniracetam, N-anisoyl-2-pyrrolidinone]
fraction of drug converted to anisoyl-GABA [1]: about 80%

O=C1c2cc3c(cc2OC2OCCN12)OCO3 (single isomer, unassigned) [Column Fraction 1]
Maze MED (Minimum Effective Dose) (rats; listed as active enantiomer of compound 1): 0.01 mg/kg | EPSP Response (percent increase in amplitude of the EPSP response) (AMPA receptors; compound concentration 50 μM, resolved enantiomers of compound 1, listed as first-eluting enantiomer): 80%

O=C1c2cc3c(cc2OC2OCCN12)OCCO3 (centres unmarked) [Compound 2, 8,9-Dihydro-6aH, 11H-1,4-dioxan[2,3-g]oxazolo[2,3-b][1,3]benzoxazin-11-one]
minimal effective dose (rats): 0.01 mg/kg | EPSP Response (percent increase in amplitude of the EPSP response) (AMPA receptors; compound concentration 5 μM, rat hippocampal slice, field CA1): 35%

CC1CN2C(=O)c3cc4c(cc3OC2O1)OCO4 (single isomer, unassigned) [Compound 5.1, 7,8-Dihydro-7-methyl-5aH, 10H-1,3-dioxolo[4,5-g]oxazolo[2,3-b][1,3]benzoxazin-10-one]
EPSP Response (percent increase in amplitude of the EPSP response) (AMPA receptors; [2]): 14%

CC1COC2Oc3cc4c(cc3C(=O)N12)OCO4 (centres unmarked) [Compound 6, 7,8-Dihydro-8-methyl-5aH, 10H-1,3-dioxolo[4,5-g]oxazolo[2,3-b][1,3]benzoxazin-10-one]
EPSP Response (percent increase in amplitude of the EPSP response) (AMPA receptors; [3]): 10%
